Test results published in patent US20040248887A1, “Inhibitors of cathepsin S” (IRM LLC, priority 2003, published 2004).
Read-outs that look alike come from different tables or passages of the source.

Assays:
Format in all cases: biochemical
Cathepsin K = target: T1, Cathepsin K (Homo sapiens, UniProt P43235); experiment: Cathepsin K inhibition, fluorogenic peptide substrate kinetic assay; conditions: Table III; Cathepsin K inhibition constant, pH5.5; read-out: Ki Cat. K
T1 sequence (P43235 115-329): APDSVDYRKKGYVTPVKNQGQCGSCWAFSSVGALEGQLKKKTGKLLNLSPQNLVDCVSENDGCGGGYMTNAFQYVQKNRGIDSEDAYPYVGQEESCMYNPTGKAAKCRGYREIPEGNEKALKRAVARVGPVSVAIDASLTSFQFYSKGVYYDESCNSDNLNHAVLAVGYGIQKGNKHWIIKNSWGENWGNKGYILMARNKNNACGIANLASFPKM
Procedure: (§1) The optimal substrate for cathepsin K, acetyl-lysine-histidine-proline-lysine-amino carbamoyl coumarin, was identified from screening a combinatorial library of fluorogenic peptide substrates (Harris, J. L., B. J. Backes, et al., Proc Natl Acad Sci U S A 2000, 97(14), 7754-9). Kinetic measurements are performed in a total reaction volume of 30 μl in 384-well microtiter plates. […] The reactions are initiated by adding the substrate, acetyl-lysine-histidine-proline-lysine-amino carbamoyl coumarin, to a final concentration of 40 μM. The rate of substrate hydrolysis is measured by monitoring the increase in fluorescence at an excitation wavelength of 380 nm and an emission wavelength of 450 nm that results from cleavage of the aniline bond in the substrate by the enzyme. The apparent inhibition constants for the compounds are determined from the enzyme progress curves (Kuzmic, P., K. C. Elrod, et al., Anal Biochem 2000, 286(1), 45-50) and are then used to calculate the inhibition constants for competitive inhibitors.

Cathepsin B = Cathepsin B (Homo sapiens, UniProt P07858); experiment: Cathepsin B inhibition, fluorogenic peptide substrate kinetic assay; conditions: Table III; Cathepsin B inhibition constant, pH5.5; read-out: Ki Cat. B
Procedure: The optimal substrate for cathepsin B, acetyl-histidine-proline-valine-lysine-amino carbamoyl coumarin, was identified from screening a combinatorial library of fluorogenic peptide substrates (Harris, J. L., B. J. Backes, et al., Proc Natl Acad Sci USA 2000, 97(14), 7754-9). Kinetic measurements are performed in a total reaction volume of 30 μl in 384-well microtiter plates. Cathepsin B, at a final concentration of 1.5 nM (active site), is incubated with the compounds at twelve varying concentrations in a buffer containing 100 mM NaAc (pH5.5), 1 mM EDTA, 100 mM NaCl, 0.01% Brij-35 for 20 minutes at room temperature. Control reactions in the absence of inhibitor are performed in replicates of 24. The reactions are initiated by adding the substrate, acetyl-histidine-proline-valine-lysine-amino carbamoyl coumarin, to a final concentration of 10 μM. The rate of substrate hydrolysis is measured by monitoring the increase in fluorescence at an excitation wavelength of 380 nm and an emission wavelength of 450 nm that results from cleavage of the aniline bond in the substrate by the enzyme. The apparent inhibition constants for the compounds are determined from the enzyme progress curves (Kuzmie, P., K. C. Elrod, et al., Anal Biochem 2000, 286(1), 45-50) and are then used to calculate the inhibition constants for competitive inhibitors.

Cathepsin L = Cathepsin L (Homo sapiens, UniProt P07711); experiment: Cathepsin L inhibition, fluorogenic peptide substrate kinetic assay; conditions: Table III; Cathepsin L inhibition constant, pH5.5; read-out: Ki Cat. L
Procedure: as §1, with “Kinetic” for “The optimal substrate for cathepsin K, acetyl-lysine-histidine-proline-lysine-amino carbamoyl coumarin, was identified from screening a combinatorial library of fluorogenic peptide substrates (Harris, J. L., B. J. Backes, et al., Proc Natl Acad Sci U S A 2000, 97(14), 7754-9). Kinetic”, “acetyl-histidine-lysine-phenylalanine-lysine-amino” for “acetyl-lysine-histidine-proline-lysine-amino”, “20” for “40”

Cathepsin S = Cathepsin S (Homo sapiens, UniProt P25774); experiment: Cathepsin S inhibition, fluorogenic peptide substrate kinetic assay; conditions: Cathepsin S inhibition constant, pH5.5, read-out: Ki Cat. S
How it was run: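 Ki values derive from apparent constants fitted to progress curves, corrected for competition with substrate via [S] and Km. Kinetics were monitored at 380 nm excitation/450 nm emission, after substrate addition (Ac-HPVK-ACC, 50 μM final) to start the reaction.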

Cathepsin L, sequence (P07711 114-333, species assumed): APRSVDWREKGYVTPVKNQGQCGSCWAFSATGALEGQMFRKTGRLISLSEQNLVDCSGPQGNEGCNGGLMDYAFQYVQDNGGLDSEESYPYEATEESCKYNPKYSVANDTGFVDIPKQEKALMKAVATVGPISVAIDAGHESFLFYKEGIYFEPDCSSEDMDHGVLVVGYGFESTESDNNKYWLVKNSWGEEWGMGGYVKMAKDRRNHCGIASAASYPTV
Cathepsin S, sequence (P25774 115-331, species assumed): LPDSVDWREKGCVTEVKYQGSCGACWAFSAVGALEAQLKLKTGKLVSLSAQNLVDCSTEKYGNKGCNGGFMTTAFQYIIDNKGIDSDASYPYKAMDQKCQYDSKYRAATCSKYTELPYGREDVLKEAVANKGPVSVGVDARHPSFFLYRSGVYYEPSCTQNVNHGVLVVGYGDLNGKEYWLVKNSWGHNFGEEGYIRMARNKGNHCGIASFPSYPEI

Row | SMILES | Ki (Cathepsin K) [µM] | Ki (Cathepsin B) [µM] | Ki (Cathepsin L) [µM] | Ki (Cathepsin S; Table II) [µM] | Ki (Cathepsin S; Table III) [µM]
1 | C[C@@H](CNc1ccc(OC(F)(F)F)cc1)NC(=O)[C@H](CC1CCCCC1)NS(=O)(=O)c1cccc(Cl)c1 [Compound 181, (S,S)-2-(3-Chloro-benzenesulfonylamino)-3-cyclohexyl-N-[1-methyl-2-(4-trifluoromethoxy-phenylamino)-ethyl]-propionamide] | > 10 | > 10 | < 10 | < 0.1 | < 0.1
2 | C[C@@H](CNc1ccccc1C(N)=O)NC(=O)[C@H](CC1CCCCC1)NC(=O)c1ccc(-c2cccc(F)c2)o1 [Compound 121, 5-(3-Fluoro-phenyl)-furan-2-carboxylic acid {1-(S)-[2-(2-carbamoyl-phenylamino)-1-(S)-methyl-ethylcarbamoyl]-2-cyclohexyl-ethyl}-amide] | < 10 | < 10 | < 10 | < 1 | < 1
3 | Cc1noc(C)c1NC(=O)N[C@@H](CC1CCCCC1)C(=O)NCCN1CCc2cc(F)ccc21 [Compound 221] | > 10 | > 10 | > 10 | < 1 | < 1
4 | Cc1nn(C)c(Cl)c1S(=O)(=O)N[C@@H](CC1CCCCC1)C(=O)NCCN1CCc2cc(F)ccc21 [Compound 241, (S)-2-(5-Chloro-1,3-dimethyl-1H-pyrazole-4-sulfonylamino)-3-cyclohexyl-N-[2-(5-fluoro-2,3-dihydro-indol-1-yl)-ethyl]-propionamide] | > 10 | > 10 | < 10 | < 1 | < 1

Next, values leading:

Row | Ki (Cathepsin K) [µM] | Ki (Cathepsin B) [µM] | Ki (Cathepsin L) [µM] | Ki (Cathepsin S; Table II) [µM] | Ki (Cathepsin S; Table III) [µM] | SMILES
5 | < 10 | > 10 | < 1 | < 10 | < 10 | COc1ccc(N2CCC[C@H](NC(=O)[C@H](CC(C)C)NC(=O)c3cccc(C)c3)C2)cc1 (single isomer, unassigned) [Compound 31]
6 | < 10 | > 10 | < 0.1 | < 0.1 | < 0.1 | COc1cccc(C(=O)N[C@@H](CC2CCCCC2)C(=O)N[C@@H](CN2CCOCC2)CN2CCc3cc(F)ccc32)c1 [Compound 151, N-{2-Cyclohexyl-1-(S)-[2-(5-fluoro-2,3-dihydro-indol-1-yl)-1-(S)-morpholin-4-ylmethyl-ethylcarbamoyl]-ethyl}-3-methoxy-benzamide]
7 | > 10 | > 10 | < 0.1 | < 0.1 | < 0.1 | Cc1ccccc1C(C)C(=O)N[C@@H](CC1CCCCC1)C(=O)NCCN1CCc2cc(F)ccc21 (stereo partly drawn) [Compound 61, N-{2-cyclohexyl-1-(S)-[2-(5-fluoro-2,3-dihydro-indol-1-yl)-ethylcarbamoyl]-ethyl}-2-o-tolyl-propionamide]
8 | < 10 | > 10 | < 10 | < 1 | < 1 | COC(=O)c1cccc(NC[C@H](C)NC(=O)[C@H](CC2CCCCC2)NC(=O)c2ccc(-c3cccc(F)c3)o2)c1 [Compound 110, 3-[2-(S)-(3-Cyclohexyl-2-(S)-{[5-(3-fluoro-phenyl)-furan-2-carbonyl]-amino}-propionylamino)-propylamino]-benzoic acid methyl ester]
